Laboratory results reported in patent publication US10705094B2, “TNF receptor signaling modulator assay” (UCB Biopharma SRL, priority 2015, dated 2020).

Legend:
[1] = target: T1, TNFα binding to the TNF receptor (TNFR-ECD) (Homo sapiens, UniProt P01375); assay: Meso Scale Discovery (MSD) assay of TNFα binding to plate-coated TNFR-ECD; conditions: single point assay, 100 μM compound, 5% final v/v DMSO
T1 construct: purchased R&D Systems
Protocol: 384 well uncoated plates (standard binding) Meso Scale Discovery plates (MSD) were coated overnight with the extracellular domain of TNFR (TNFR-ECD) (10 μl, 1 ug/mL in PBS). To ensure even distribution plates were centrifuged at 1000 rpm for 2 minutes. The plates were then sealed and stored at +4° C. overnight.
The wells of the plates were then washed three times in 50 μl phosphate buffered saline pH 6.5 (PB) with 0.05% Tween 20 (wash buffer), and then blocked with 50 μl 2% BSA. The plates were then incubated at room temperature on a shaker (600 rpm) for 2 hours. After this incubation plates were washed (3×50 μl wash buffer per well).
During the blocking incubation, compounds of formulae (1) and (2) were pre-incubated with TNF (R&D Systems) prior to addition to the pre-blocked and washed MSD plates. For a single point assay as shown in FIG. 3A the compounds were assayed at a final concentration of 100 μM (5% final v/v DMSO).
Pre-diluted compounds of formulae (1) and (2) were added at a ratio of 1:1 to 4 ng/mL TNF (final concentration 2 ng/ml), and then incubated at room temperature on a shaker 600 rpm for 1 hour.
10 μl of pre-incubated mixtures of compound of formulae (1) or (2) with TNFα were added to the prepared MSD plate and incubated at room temperature on a shaker for 1 hour.
The plates were then washed with wash buffer (3×50 μl per well). Sulfo-tagged anti-TNF polyclonal antibody was then added to each well and the plates incubated for a further 1.5 hours at room temperature on a shaker.
The plates were then washed (3×50 μl wash buffer per well), followed by the addition of 50 μl MSD Read buffer T plus surfactant (diluted 1 in 2 in H2O) and read on a SECTOR Imager 6000.
For single point assays percentage inhibition was calculated using a control sample without compound.
For EC50s determination results were calculated by standard means using a 4 parameter logistic model (sigmoidal dose response model).

TNFα [2] = target: T2, TNFα (Homo sapiens, UniProt P01375); assay: Fluorescence polarization assay, competition with the compound of formula (4) for TNFα; conditions: TNFα 50 nM, compound of formula (4) 10 nM, 5% DMSO; read-out: IC50 (inhibition of binding of the compound of formula (4) to TNFα)
T2 sequence (P01375 77-233 limits assumed): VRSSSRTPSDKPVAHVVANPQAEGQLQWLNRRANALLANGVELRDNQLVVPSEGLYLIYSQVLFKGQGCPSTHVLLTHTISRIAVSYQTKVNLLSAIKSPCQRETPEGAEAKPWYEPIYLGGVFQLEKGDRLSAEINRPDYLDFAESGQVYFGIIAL
Protocol: The final concentrations of TNFα and the compound of formula (4) were 50 nM and 10 nM respectively in a total assay volume of 25 μl. Plates were read on an Analyst HT reader. An IC50 was calculated using xlfit (4 parameter logistic model) in Activity Base.
C87 was preincubated with TNFα for 1 hour prior to assay against the fluorescent compound (probe). Competition with the fluorescent compound either directly (binding at the same site) or indirectly (disrupting TNF) is detected by a reduction in FP.

TNFα [3] = target: T2, TNFα; assay: Surface plasmon resonance kinetics of compound binding to immobilised TNFα (Biacore T100/T200)
Protocol: Surface plasmon resonance was used to measure the association rate, the dissociation rate and the affinity of the compounds of formulae (1) and (2) for TNFα (FIGS. 13A and B). For the purpose of this study a Biacore T100/T200 was used.
TNFα was immobilised at pH5 to a level of 5-8 KRU onto a CMS sensor in HBS-P buffer (10 mM HEPES pH 7.4, 0.15 M NaCl, 0.005% Surfactant P20, BIAcore, GE Healthcare). The TNFα was then equilibrated in HBS-P with 5% DMSO for at least 5 hours. The samples were diluted from 10 mM stocks into DMSO matched buffer and left to solubilise for at least 5 hours. The flow rate was 30 μL/min.
This assay was performed by adding 4 or 5 concentrations of compound starting from a highest concentration of 25 μM for compound of formula (1) and 1 μM for compound of formula (2) and then serially diluting this sample. Background subtraction binding curves were analysed using the BIAevaluation software following standard procedures. Binding, affinity and kinetic parameters were determined using Biacore software. The kinetic data were fitted using the levenberg marquardt algorithm.

TNFα [4] = target: T2, TNFα; assay: L929 murine fibrosarcoma cell-killing (neutralisation) assay; format: cell-based, mouse; design: host or cells: added to L929 murine fibrosarcoma cells (ECACC, 85011425); conditions: L929 cells; read-out: IC50 (inhibition of cell killing activity of human TNFα)
Protocol: The L929 neutralisation assays were carried out using the protocol disclosed in Baarsch M J J et al (Immunol Methods 1991; 140: 15-22) and Galloway C J et al J (Immunol Methods 1991; 140: 37-43).
Briefly, L929 cells (ECACC, 85011425) were cultured in culture medium consisting of RPMI 1640 (Gibco) containing 10% FCS (PAA), 2 mM glutamine (Gibco), 50 U/ml penicillin (Gibco) and 50 μg/ml streptomycin (Gibco). When they were subcultured, the cells were washed three times with 10 mL Dulbecco's phosphate-buffered saline without calcium and magnesium (Gibco) and 3 ml of trypsin-EDTA (Gibco) was then added for 2 minutes to remove the cells from the flask. Culture medium was added to neutralise the trypsin and the cells pipetted up and down to remove any clumps.
The L929 cells were split 1/2 or 1/3 the day before use and cultured for a further 24 hours. The flasks were then trypsinised as above and 2×10^4 cells in 100 μl were added per well of a 96 well flat-bottomed plate (Becton Dickinson). The plates were cultured for 24 hours before the assay was set up.
Serial dilutions were made from DMSO stocks of the compounds.
The assay medium was the same as culture medium but also contained 1 μg/ml actinomycin D (Sigma). The medium was flicked off the plates and the assay samples plus TNFα, standards and controls were added in 100 μl volumes in duplicate. Plates were incubated for a further 16 hours and then 10 μl per well of a 5 mg/ml methylthiazoletetrazolium (MTT; Sigma) solution in culture medium was added for a further 4 hours. The reaction was stopped by the addition of 100 μl of solubilisation buffer containing 20% sodium dodecyl sulphate (SDS, BDH) dissolved in 50% dimethyl formamide (DMF; BDH) and 50% deionised water.
After overnight incubation at 37° C. to allow the dye to dissolve, the plates were read on a Multiskan EX plate reader (Labsystem) at 570 nm with subtraction at 630 nm. Data were analysed using the Genesis software package.

T1 sequence (P01375 77-233 limits assumed): as above

SMILES: Cc1cc2occ(CN(C)CCN(C)Cc3cn(-c4cccc(C(F)(F)F)c4)c4ccccc34)c(=O)c2cc1C [SPD-304, reference compound]
- % inhibition of TNFα binding to the TNF receptor [1]: +80%

SMILES: O=C1CCCN1c1cccc(OCc2nc3ccc(-c4ccc(=O)[nH]c4)cc3n2Cc2ccccc2OC(F)F)c1 [Compound (3), 5-(1-[2-(Difluoromethoxy)benzyl]-2-{[3-(2-oxo-pyrrolidin-1-yl)phenoxy]methyl}-1H-benzimidazol-6-yl)-pyridin-2(1H)-one]
- IC50 (TNFα [2]): 20 nM
- Kd (TNFα [3]; calculated from koff/kon, read-out: dissociation constant (KD)): 7 nM
- kon (TNFα [3]; immobilised TNFα, HBS-P with 5% DMSO): 5470 M⁻¹ s⁻¹
- koff (TNFα [3]; immobilised TNFα, HBS-P with 5% DMSO, read-out: dissociation rate constant (koff)): 4.07e-05 s⁻¹
- IC50 (TNFα [4]): 21 nM
